This note sets out measurements from patent US20210169892A1, “MODULATORS OF THE INTEGRATED STRESS PATHWAY” (Calico Life Sciences LLC, priority 2017, published 2021).

The experiment concerns HEK293T cells carrying the ATF4 luciferase reporter. In words: ATF4-Luc assay (in vitro model of vanishing white matter disease). In kind it is cell-based. The following applies: Homo sapiens, HEK-293T; HEK293T cells with ATF4 luciferase reporter, 1 μg/mL tunicamycin, 7 hours, One Glo luminescence. As for the experimental part: In order to test exemplary compounds of the invention in a cellular context, a stable VWMD cell line was first constructed. The ATF4 reporter was prepared by fusing the human full-length ATF4 5′-UTR (NCBI Accession No. BC022088.2) in front of the firefly luciferase (FLuc) coding sequence lacking the initiator methionine as described in Sidrauski et al (eLife 2013). The construct was used to produce recombinant retroviruses using standard methods and the resulting viral supernatant was used to transduce HEK293T cells, which were then subsequently selected with puromycin to generate a stable cell line.
HEK293T cells carrying the ATF4 luciferase reporter were plated on polylysine coated 384-well plates (Greiner Bio-one) at 30,000 cells per well. Cells were treated the next day with 1 μg/mL tunicamycin and 200 nM of a compound of Formula (I) for 7 hours. Luminescence was measured using One Glo (Promega) as specified by the manufacturer. Cells were maintained in DMEM with L-glutamine supplemented with 10% heat-inactivated FBS (Gibco) and Antibiotic-Antimycotic solution (Gibco).
Table 2 below summarizes the EC50 data obtained using the ATF4-Luc assay for exemplary compounds of the invention.
For orientation: Reporter assays use an easily measured gene product as a stand-in for the process of interest.

Broadly, the EC50 is the concentration needed to bring the measured effect to its halfway point.

`O=C(COc1ccc(Cl)c(F)c1)NC12CC(NC(=O)C3CN(C(=O)C4CCOC4)c4cc(Cl)ccc4O3)(C1)C2` (stereo not drawn) [Compound 152, 6-chloro-N-{3-[2-(4-chloro-3-fluorophenoxy)acetamido]bicyclo[1.1.1]pentan-1-yl}-4-(oxolane-3-carbonyl)-3,4-dihydro-2H-1,4-benzoxazine-2-carboxamide]: the EC50 was 250 to 500 nM. To `O=C(COc1ccc(Cl)c(F)c1)NC12CCC(NC(=O)[C@H]3COc4ccccc4O3)(CC1)[C@@H](O)C2` [Compound 126, (2R)—N-{(2S)-4-[2-(4-chloro-3-fluorophenoxy)acetamido]-2-hydroxybicyclo[2.2.2]octan-1-yl}-2,3-dihydro-1,4-benzodioxine-2-carboxamide] belongs less than 10 nM.

Regarding `O=C(COc1ccc(Cl)c(F)c1)NC12CCC(NC(=O)[C@@H]3CCc4cc(F)ccc4O3)(CC1)[C@@H](O)C2` [Compound 201, (2S)—N-{(2S)-4-[2-(4-chloro-3-fluorophenoxy)acetamido]-2-hydroxybicyclo[2.2.2]octan-1-yl}-6-fluoro-3,4-dihydro-2H-1-benzopyran-2-carboxamide], the EC50 is less than 10 nM. As to `COc1ccc(C(=O)N2CC(C(=O)NC34CC(NC(=O)COc5ccc(Cl)c(F)c5)(C3)C4)Oc3ccc(Cl)cc32)cc1` (stereo not drawn) [Compound 150, 6-chloro-N-{3-[2-(4-chloro-3-fluorophenoxy)acetamido]bicyclo[1.1.1]pentan-1-yl}-4-(4-methoxybenzoyl)-3,4-dihydro-2H-1,4-benzoxazine-2-carboxamide], the EC50 lay within 250 to 500 nM. For `Cc1ccc(C(=O)N2CC(C(=O)NC34CC(NC(=O)COc5ccc(Cl)c(F)c5)(C3)C4)Oc3ccc(Cl)cc32)o1` (stereo not drawn) [Compound 145, 6-chloro-N-{3-[2-(4-chloro-3-fluorophenoxy)acetamido]bicyclo[1.1.1]pentan-1-yl}-4-(5-methylfuran-2-carbonyl)-3,4-dihydro-2H-1,4-benzoxazine-2-carboxamide], the EC50 is 50 to 250 nM. To `O=C(COc1ccc(Cl)c(F)c1)NC12CCC(NC(=O)C3CNc4cc(Cl)ccc4O3)(CC1)C[C@@H]2O` (stereo partly drawn) [Compound 114, 6-chloro-N-{(3S)-4-[2-(4-chloro-3-fluorophenoxy)acetamido]-3-hydroxybicyclo[2.2.2]octan-1-yl}-3,4-dihydro-2H-1,4-benzoxazine-2-carboxamide] belongs less than 10 nM.

With `O=C(COc1ccc(Cl)c(F)c1)NC12CCC(NC(=O)C3CCc4cc(F)ccc4O3)(CC1)[C@@H](O)C2` (stereo partly drawn) [Compound 200, N-{(2S)-4-[2-(4-chloro-3-fluorophenoxy)acetamido]-2-hydroxybicyclo[2.2.2]octan-1-yl}-6-fluoro-3,4-dihydro-2H-1-benzopyran-2-carboxamide], the EC50 was less than 10 nM. For the molecule `O=C(COc1ccc(Cl)c(F)c1)NC12CC(NC(=O)C3CN(C(=O)C4(F)CC4)c4cc(Cl)ccc4O3)(C1)C2` (stereo not drawn) [Compound 140, 6-chloro-N-{3-[2-(4-chloro-3-fluorophenoxy)acetamido]bicyclo[1.1.1]pentan-1-yl}-4-(1-fluorocyclopropane-1-carbonyl)-3,4-dihydro-2H-1,4-benzoxazine-2-carboxamide], the EC50 is 50 to 250 nM.

As for `CSN1CC(C(=O)NC23CC(NC(=O)COc4ccc(Cl)c(F)c4)(C2)C3)Oc2ccc(Cl)cc21` (stereo not drawn) [Compound 172, 6-chloro-N-{3-[2-(4-chloro-3-fluorophenoxy)acetamido]bicyclo[1.1.1]pentan-1-yl}-4-(methylsulfanyl)-3,4-dihydro-2H-1,4-benzoxazine-2-carboxamide], the EC50 was less than 10 nM. Take `O=C(COc1ccc(Cl)c(F)c1)NC12CC(NC(=O)C3CN(C(=O)C4(C(F)(F)F)CC4)c4cc(Cl)ccc4O3)(C1)C2` (stereo not drawn) [Compound 177, 6-chloro-N-{3-[2-(4-chloro-3-fluorophenoxy)acetamido]bicyclo[1.1.1]pentan-1-yl}-4-[1-(trifluoromethyl)cyclopropane-1-carbonyl]-3,4-dihydro-2H-1,4-benzoxazine-2-carboxamide]: the concentration giving a half-maximal response (EC50) is less than 10 nM.

Regarding `O=C(COc1ccc(Cl)c(F)c1)NC12CC(NC(=O)C3CN(C(=O)C(F)(F)C(F)F)c4cc(Cl)ccc4O3)(C1)C2` (stereo not drawn) [Compound 161, 6-chloro-N-{3-[2-(4-chloro-3-fluorophenoxy)acetamido]bicyclo[1.1.1]pentan-1-yl}-4-(2,2,3,3-tetrafluoropropanoyl)-3,4-dihydro-2H-1,4-benzoxazine-2-carboxamide], the EC50 is less than 10 nM. Take `O=C(COc1ccc(Cl)c(F)c1)NC12CCC(NC(=O)C3Oc4ccccc4O3)(CC1)CC2` [Compound 100, N-{4-[2-(4-chloro-3-fluorophenoxy)acetamido]bicyclo[2.2.2]octan-1-yl}-2H-1,3-benzodioxole-2-carboxamide]: the EC50 is greater than 2000 nM.

As to `O=C(O)CCN1CC(C(=O)NC23CC(NC(=O)COc4ccc(Cl)c(F)c4)(C2)C3)Oc2ccc(Cl)cc21` (stereo not drawn) [Compound 170, 3-[6-chloro-2-({3-[2-(4-chloro-3-fluorophenoxy)acetamido]bicyclo[1.1.1]pentan-1-yl}carbamoyl)-2,3-dihydro-4H-1,4-benzoxazin-4-yl]propanoic acid], the EC50 is 250 to 500 nM. For the molecule `O=C(COc1ccc(Cl)c(F)c1)NC12CC(NC(=O)C3COc4cc(F)c(F)cc4O3)(C1)C2` (stereo not drawn) [Compound 118, N-{3-[2-(4-chloro-3-fluorophenoxy)acetamido]bicyclo[1.1.1]pentan-1-yl}-6,7-difluoro-2,3-dihydro-1,4-benzodioxine-2-carboxamide], the EC50 was less than 10 nM. With `O=C(O)CC1c2ccccc2CCN1C(=O)NC12CC(NC(=O)COc3ccc(Cl)c(F)c3)(C1)C2` (stereo not drawn) [Compound 155, [2-({3-[2-(4-chloro-3-fluorophenoxy)acetamido]bicyclo[1.1.1]pentan-1-yl}carbamoyl)-1,2,3,4-tetrahydroisoquinolin-1-yl]acetic Acid] the figure was greater than 2000 nM; with `O=C(COc1ccc(F)c(F)c1)NC12CC(NC(=O)C3COc4cc(Cl)c(Cl)cc4O3)(C1)C2` (stereo not drawn) [Compound 117, 6,7-dichloro-N-{3-[2-(3,4-difluorophenoxy)acetamido]bicyclo[1.1.1]pentan-1-yl}-2,3-dihydro-1,4-benzodioxine-2-carboxamide], less than 10 nM. Consider `O=C(COc1ccc(Cl)c(F)c1)NC12CC(NC(=O)C3CN(C(=O)C4CC4)c4cc(Cl)ccc4O3)(C1)C2` (stereo not drawn) [Compound 149, 6-chloro-N-{3-[2-(4-chloro-3-fluorophenoxy)acetamido]bicyclo[1.1.1]pentan-1-yl}-4-(cyclopropanecarbonyl)-3,4-dihydro-2H-1,4-benzoxazine-2-carboxamide], for which the EC50 fell in the range of 50 to 250 nM.

Regarding `O=C(COc1ccc(Cl)c(F)c1)NC12CCC(NC(=O)[C@H]3COc4cc(Cl)ccc4O3)(CC1)C[C@@H]2O` [Compound 115, (2R)-6-chloro-N-{(3S)-4-[2-(4-chloro-3-fluorophenoxy)acetamido]-3-hydroxybicyclo[2.2.2]octan-1-yl}-2,3-dihydro-1,4-benzodioxine-2-carboxamide], the EC50 is less than 10 nM. As to `O=C(CN1CCc2cc(Cl)ccc21)NC12CCC(NC(=O)COc3ccc(Cl)c(F)c3)(CC1)[C@@H](O)C2` [Compound 101, 2-(5-chloro-2,3-dihydro-1H-indol-1-yl)-N-{(3S)-4-[2-(4-chloro-3-fluorophenoxy)acetamido]-3-hydroxybicyclo[2.2.2]octan-1-yl}acetamide], the EC50 lay within 500 to 2000 nM. For the molecule `COCC(=O)N1CC(C(=O)NC23CC(NC(=O)COc4ccc(Cl)c(F)c4)(C2)C3)Oc2ccc(Cl)cc21` (stereo not drawn) [Compound 158, 6-chloro-N-{3-[2-(4-chloro-3-fluorophenoxy)acetamido]bicyclo[1.1.1]pentan-1-yl}-4-(methoxyacetyl)-3,4-dihydro-2H-1,4-benzoxazine-2-carboxamide], the EC50 fell in the range of 10 to 50 nM. Regarding `O=C(COc1ccc(Cl)c(F)c1)NC12CC(NC(=O)C3CN(C(=O)c4cccc(C(F)(F)F)c4)c4cc(Cl)ccc4O3)(C1)C2` (stereo not drawn) [Compound 160, 6-chloro-N-{3-[2-(4-chloro-3-fluorophenoxy)acetamido]bicyclo[1.1.1]pentan-1-yl}-4-[3-(trifluoromethyl)benzoyl]-3,4-dihydro-2H-1,4-benzoxazine-2-carboxamide], the EC50 is greater than 2000 nM. Regarding `O=C(COc1ccc(Cl)c(F)c1)NC12CC(NC(=O)C3CN(C(=O)[C@@H]4C[C@@H]4F)c4cc(Cl)ccc4O3)(C1)C2` (stereo partly drawn) [Compound 175, 6-chloro-N-{3-[2-(4-chloro-3-fluorophenoxy)acetamido]bicyclo[1.1.1]pentan-1-yl}-4-[(1S,2S)-2-fluorocyclopropane-1-carbonyl]-3,4-dihydro-2H-1,4-benzoxazine-2-carboxamide], the EC50 lay in the range of 250 to 500 nM. For `O=C(COc1ccc(Cl)c(F)c1)NC12CC(NC(=O)C3CCc4cc(Cl)ccc4O3)(C1)C2` (stereo not drawn) [Compound 204, 6-chloro-N-{3-[2-(4-chloro-3-fluorophenoxy)acetamido]bicyclo[1.1.1]pentan-1-yl}-3,4-dihydro-2H-1-benzopyran-2-carboxamide], the EC50 was less than 10 nM. On to `O=C(COc1ccc(Cl)c(F)c1)NC12CC(NC(=O)C3CN(S(=O)(=O)CC(F)(F)F)c4cc(Cl)ccc4O3)(C1)C2` (stereo not drawn) [Compound 183, 6-chloro-N-{3-[2-(4-chloro-3-fluorophenoxy)acetamido]bicyclo[1.1.1]pentan-1-yl}-4-(2,2,2-trifluoroethanesulfonyl)-3,4-dihydro-2H-1,4-benzoxazine-2-carboxamide], for which the EC50 lay in the range of 10 to 50 nM.
